Reference: patent publication US20090137572A1, “2-substituted-4-heteroaryl-pyrimidines useful for the treatment of proliferative disorders” (priority 2004, published 2009)

Columns and labels:
Test in all cases: Kinase selectivity profile, kinase inhibition IC50 (Table 4), ATP 100 μM
Assay type in all cases: biochemical
[1] = target: T1, protein kinases (panel of Table 4) (Homo sapiens, UniProt P36888); settings: kinase Flt3
T1 construct: other: kinase Flt3; ATP 100 μM
T1 sequence (P36888 1-993): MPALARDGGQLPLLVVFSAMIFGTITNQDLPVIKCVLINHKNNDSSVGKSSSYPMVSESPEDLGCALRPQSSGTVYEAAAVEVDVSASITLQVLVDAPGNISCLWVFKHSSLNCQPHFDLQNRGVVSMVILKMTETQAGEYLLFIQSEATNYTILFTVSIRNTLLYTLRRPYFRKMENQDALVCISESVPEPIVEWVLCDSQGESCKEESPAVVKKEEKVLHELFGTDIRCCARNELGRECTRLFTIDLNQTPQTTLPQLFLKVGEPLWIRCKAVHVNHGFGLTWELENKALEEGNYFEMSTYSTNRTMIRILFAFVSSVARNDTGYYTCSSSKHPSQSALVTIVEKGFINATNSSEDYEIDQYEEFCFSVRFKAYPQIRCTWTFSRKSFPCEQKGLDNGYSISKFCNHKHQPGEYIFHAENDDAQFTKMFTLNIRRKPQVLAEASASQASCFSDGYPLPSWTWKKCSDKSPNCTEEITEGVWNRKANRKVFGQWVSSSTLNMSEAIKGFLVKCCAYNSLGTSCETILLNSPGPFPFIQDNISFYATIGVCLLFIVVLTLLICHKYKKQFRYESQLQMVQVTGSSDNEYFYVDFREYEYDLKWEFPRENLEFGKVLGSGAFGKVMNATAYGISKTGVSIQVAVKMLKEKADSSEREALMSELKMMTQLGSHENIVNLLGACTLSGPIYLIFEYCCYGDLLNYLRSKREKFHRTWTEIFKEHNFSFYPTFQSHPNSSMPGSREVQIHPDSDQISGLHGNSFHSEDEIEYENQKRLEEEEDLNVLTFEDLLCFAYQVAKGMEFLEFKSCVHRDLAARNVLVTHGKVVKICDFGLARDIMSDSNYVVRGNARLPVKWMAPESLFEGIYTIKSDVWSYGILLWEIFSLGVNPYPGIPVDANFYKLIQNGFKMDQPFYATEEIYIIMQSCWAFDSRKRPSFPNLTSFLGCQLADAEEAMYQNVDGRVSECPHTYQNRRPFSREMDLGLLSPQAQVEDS
Description: (§1) For the assays shown in Table 3, the kinases were assayed at the following ATP concentrations: SAPK4, PKBΔph, GSK3b, SAPK3, CK2, MKK1, PIM2, IKKB, ERK8, and PRK2 at 5 μM; JNK, PRAK, ROCK-II, SAPK2b, CDK2, CHK1, MSK1, CSK, P70S6K, PKA, CK1, MAPKAP-K2, SGK, PKCa, PDK1, NEK 7, and MAPKAP-K3 at 20 μM; SAPK2a, LCK, AMPK, MAPK2, DYRK1a, MAPKAP-K1a, NEK-6, NEK2a, PBK, CAMK-1, SRPK-1, JNK3, MNK2, RSK2, MNK1, PKBB, and SmMLCK at 50 μM. For the assays in Table 4 the ATP concentration was 100 μM throughout.

[2] = target: T2, protein kinases (panel of Table 4) (Homo sapiens, UniProt O14965); settings: kinase Aurora A
T2 construct: other: kinase Aurora A; ATP 100 μM
T2 sequence (O14965 1-403): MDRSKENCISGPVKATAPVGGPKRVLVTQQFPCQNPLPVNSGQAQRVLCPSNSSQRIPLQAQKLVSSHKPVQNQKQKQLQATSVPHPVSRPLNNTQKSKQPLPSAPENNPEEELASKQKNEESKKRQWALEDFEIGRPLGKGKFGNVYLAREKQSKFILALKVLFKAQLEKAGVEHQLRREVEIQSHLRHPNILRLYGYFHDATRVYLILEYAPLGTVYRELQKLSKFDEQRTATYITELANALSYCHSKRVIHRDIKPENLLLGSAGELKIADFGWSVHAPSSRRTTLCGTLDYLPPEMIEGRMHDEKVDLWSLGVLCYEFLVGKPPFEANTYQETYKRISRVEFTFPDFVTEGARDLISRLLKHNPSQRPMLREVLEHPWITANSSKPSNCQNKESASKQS
Description: as §1

[3] = target: T3, protein kinases (panel of Table 4) (Homo sapiens, UniProt P53350); settings: kinase Plk1
T3 construct: other: kinase Plk1; ATP 100 μM
Description: as §1

[4] = target: T4, protein kinases (panel of Table 4) (Homo sapiens, UniProt P50750); settings: kinase CDK9T1
T4 construct: other: kinase CDK9T1; ATP 100 μM
Description: as §1

[5] = target: T5, protein kinases (panel of Table 4) (Homo sapiens, UniProt Q00534); settings: kinase CDK6D3
T5 construct: other: kinase CDK6D3; ATP 100 μM
Description: as §1

[6] = target: T6, protein kinases (panel of Table 4) (Homo sapiens, UniProt P28482); settings: kinase ERK2
T6 construct: other: kinase ERK2; ATP 100 μM
Description: as §1

[7] = target: T7, protein kinases (panel of Table 4) (Homo sapiens, UniProt P06493); settings: kinase CDK1B
T7 construct: other: kinase CDK1B; ATP 100 μM
Description: as §1

[8] = target: T8, protein kinases (panel of Table 4) (Homo sapiens, UniProt P50613); settings: kinase CDK7H
T8 construct: other: kinase CDK7H; ATP 100 μM
Description: as §1

[9] = target: T9, protein kinases (panel of Table 4); settings: kinase PKC
T9 construct: other: kinase PKC; ATP 100 μM
Description: as §1

[10] = target: T10, protein kinases (panel of Table 4) (Homo sapiens, UniProt P11802); settings: kinase CDK4D1
T10 construct: other: kinase CDK4D1; ATP 100 μM
Description: as §1

[11] = target: T11, protein kinases (panel of Table 4) (Homo sapiens, UniProt Q96GD4); settings: kinase Aurora B
T11 construct: other: kinase Aurora B; ATP 100 μM
Description: as §1

[12] = target: T12, protein kinases (panel of Table 4) (Homo sapiens, UniProt P49841); settings: kinase GSK3b
T12 construct: other: kinase GSK3b; ATP 100 μM
Description: as §1

[13] = target: T13, protein kinases (panel of Table 4); settings: kinase CaMKII
T13 construct: other: kinase CaMKII; ATP 100 μM
Description: as §1

[14] = target: T14, protein kinases (panel of Table 4) (Homo sapiens, UniProt P09619); settings: kinase PDGFb
T14 construct: other: kinase PDGFb; ATP 100 μM
Description: as §1

T5 sequence (Q00534 whole entry): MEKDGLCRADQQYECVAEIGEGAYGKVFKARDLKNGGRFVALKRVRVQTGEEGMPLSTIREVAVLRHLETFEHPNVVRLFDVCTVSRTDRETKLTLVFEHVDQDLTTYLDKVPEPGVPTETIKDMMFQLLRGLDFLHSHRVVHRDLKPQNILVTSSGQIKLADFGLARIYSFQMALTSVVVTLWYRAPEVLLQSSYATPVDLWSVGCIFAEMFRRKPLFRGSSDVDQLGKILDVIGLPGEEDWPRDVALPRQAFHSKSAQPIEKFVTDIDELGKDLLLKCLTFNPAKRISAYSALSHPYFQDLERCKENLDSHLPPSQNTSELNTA
T7 sequence (P06493 whole entry): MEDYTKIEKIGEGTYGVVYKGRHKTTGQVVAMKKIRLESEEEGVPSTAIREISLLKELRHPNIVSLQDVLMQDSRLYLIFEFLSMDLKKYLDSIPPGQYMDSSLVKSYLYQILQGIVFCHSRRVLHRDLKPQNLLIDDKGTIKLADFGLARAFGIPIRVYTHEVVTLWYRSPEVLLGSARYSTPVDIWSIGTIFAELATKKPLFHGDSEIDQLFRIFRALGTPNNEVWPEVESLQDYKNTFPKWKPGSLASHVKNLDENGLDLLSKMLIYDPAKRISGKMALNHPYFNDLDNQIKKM
T14 sequence (P09619 whole entry): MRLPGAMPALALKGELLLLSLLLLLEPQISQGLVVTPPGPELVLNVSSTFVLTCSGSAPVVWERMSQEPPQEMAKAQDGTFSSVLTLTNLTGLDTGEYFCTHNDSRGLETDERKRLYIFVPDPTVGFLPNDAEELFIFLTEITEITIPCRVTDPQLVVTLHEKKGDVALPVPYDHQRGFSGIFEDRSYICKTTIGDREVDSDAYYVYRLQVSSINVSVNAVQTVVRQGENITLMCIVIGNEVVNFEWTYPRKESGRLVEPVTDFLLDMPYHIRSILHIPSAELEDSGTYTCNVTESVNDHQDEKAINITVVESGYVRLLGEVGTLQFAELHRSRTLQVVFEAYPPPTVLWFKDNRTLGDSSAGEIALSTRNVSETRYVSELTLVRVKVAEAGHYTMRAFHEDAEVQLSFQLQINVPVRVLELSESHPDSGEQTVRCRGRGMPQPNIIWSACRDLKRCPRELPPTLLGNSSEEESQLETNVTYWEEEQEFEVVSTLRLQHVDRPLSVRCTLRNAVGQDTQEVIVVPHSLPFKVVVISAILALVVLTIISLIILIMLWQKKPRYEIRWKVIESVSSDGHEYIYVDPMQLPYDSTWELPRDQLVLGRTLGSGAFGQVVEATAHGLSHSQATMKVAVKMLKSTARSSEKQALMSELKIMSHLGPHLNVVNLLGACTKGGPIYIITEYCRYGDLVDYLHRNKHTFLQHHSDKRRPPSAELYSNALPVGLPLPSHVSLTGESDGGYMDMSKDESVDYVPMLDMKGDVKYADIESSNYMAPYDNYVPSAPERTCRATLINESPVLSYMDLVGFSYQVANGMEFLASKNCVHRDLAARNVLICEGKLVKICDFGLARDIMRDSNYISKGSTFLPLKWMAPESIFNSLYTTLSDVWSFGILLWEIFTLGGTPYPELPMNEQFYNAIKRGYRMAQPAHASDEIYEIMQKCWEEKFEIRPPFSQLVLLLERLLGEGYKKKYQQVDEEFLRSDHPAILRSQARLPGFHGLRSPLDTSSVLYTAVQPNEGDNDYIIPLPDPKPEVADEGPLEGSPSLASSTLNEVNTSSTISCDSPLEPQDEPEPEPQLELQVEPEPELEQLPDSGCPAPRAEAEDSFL
T3 sequence (P53350 whole entry): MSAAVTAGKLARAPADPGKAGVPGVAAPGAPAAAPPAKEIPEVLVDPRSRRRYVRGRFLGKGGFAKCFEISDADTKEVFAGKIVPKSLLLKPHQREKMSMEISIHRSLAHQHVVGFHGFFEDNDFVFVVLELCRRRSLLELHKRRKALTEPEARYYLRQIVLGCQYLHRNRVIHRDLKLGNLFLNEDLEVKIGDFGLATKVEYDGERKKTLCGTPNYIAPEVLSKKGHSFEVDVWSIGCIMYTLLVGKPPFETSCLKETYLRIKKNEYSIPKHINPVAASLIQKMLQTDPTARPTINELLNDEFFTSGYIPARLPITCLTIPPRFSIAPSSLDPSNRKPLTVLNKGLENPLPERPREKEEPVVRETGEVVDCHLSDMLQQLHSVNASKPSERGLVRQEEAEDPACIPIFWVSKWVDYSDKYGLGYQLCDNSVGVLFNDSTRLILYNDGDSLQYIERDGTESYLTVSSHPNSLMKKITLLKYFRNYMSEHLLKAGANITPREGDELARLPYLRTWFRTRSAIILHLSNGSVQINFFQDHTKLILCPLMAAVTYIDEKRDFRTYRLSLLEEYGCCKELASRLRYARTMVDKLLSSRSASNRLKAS
T11 sequence (Q96GD4 whole entry): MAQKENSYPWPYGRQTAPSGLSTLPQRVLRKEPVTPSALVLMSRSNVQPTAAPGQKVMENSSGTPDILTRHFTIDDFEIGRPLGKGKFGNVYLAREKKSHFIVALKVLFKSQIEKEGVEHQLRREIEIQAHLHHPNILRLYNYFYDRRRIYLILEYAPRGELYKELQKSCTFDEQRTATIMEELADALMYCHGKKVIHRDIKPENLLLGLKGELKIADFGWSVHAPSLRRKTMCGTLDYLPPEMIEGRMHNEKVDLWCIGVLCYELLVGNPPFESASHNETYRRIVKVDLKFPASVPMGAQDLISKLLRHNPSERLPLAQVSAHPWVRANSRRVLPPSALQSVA
T12 sequence (P49841 whole entry): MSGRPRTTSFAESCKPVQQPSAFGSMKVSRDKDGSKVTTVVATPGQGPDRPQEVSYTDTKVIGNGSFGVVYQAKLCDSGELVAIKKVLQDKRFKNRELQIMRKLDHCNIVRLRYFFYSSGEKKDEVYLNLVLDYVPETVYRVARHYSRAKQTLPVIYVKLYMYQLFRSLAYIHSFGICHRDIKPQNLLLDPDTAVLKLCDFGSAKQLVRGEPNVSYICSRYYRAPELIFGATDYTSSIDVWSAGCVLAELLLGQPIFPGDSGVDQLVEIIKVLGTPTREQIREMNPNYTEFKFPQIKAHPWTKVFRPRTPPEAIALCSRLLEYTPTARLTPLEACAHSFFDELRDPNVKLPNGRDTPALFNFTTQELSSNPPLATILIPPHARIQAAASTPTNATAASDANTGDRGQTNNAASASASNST
T10 sequence (P11802 whole entry): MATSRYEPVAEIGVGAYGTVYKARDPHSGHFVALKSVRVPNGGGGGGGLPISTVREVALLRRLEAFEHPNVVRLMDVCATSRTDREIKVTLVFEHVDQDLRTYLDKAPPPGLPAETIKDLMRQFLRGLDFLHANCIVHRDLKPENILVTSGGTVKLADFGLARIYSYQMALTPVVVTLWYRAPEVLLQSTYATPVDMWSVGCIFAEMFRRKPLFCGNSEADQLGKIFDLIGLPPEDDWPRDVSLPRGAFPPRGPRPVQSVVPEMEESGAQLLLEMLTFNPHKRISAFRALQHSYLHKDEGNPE
T8 sequence (P50613 whole entry): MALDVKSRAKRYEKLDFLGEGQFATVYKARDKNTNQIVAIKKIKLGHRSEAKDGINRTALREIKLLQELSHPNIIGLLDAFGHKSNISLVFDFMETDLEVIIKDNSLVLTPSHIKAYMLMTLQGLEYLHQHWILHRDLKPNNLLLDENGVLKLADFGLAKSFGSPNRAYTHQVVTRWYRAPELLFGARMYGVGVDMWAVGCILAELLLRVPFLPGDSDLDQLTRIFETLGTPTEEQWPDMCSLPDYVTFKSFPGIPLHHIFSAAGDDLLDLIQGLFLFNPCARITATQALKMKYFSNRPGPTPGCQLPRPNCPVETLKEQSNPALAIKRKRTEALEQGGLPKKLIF
T6 sequence (P28482 whole entry): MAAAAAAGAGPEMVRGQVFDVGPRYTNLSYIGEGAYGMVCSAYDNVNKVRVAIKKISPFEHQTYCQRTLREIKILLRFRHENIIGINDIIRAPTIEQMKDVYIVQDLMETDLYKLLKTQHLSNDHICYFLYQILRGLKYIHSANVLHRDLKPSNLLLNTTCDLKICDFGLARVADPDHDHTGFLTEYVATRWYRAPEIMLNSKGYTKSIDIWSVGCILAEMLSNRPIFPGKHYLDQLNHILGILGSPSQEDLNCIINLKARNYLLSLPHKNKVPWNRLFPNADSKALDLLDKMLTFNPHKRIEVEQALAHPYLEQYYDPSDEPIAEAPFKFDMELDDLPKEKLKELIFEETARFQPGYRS
T4 sequence (P50750 whole entry): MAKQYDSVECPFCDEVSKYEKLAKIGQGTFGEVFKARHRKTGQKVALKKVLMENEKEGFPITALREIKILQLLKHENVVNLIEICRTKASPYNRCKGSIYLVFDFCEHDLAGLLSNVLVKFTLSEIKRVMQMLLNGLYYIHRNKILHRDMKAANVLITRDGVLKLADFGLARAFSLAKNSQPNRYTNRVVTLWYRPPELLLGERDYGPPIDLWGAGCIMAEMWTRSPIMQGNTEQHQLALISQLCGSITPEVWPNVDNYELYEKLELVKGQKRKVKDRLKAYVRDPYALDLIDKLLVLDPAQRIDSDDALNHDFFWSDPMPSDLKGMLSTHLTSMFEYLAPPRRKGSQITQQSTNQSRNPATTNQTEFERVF

IC50 [1] [nM]	IC50 [2] [nM]	IC50 [3] [nM]	IC50 [4] [nM]	IC50 [5] [nM]	IC50 [6] [nM]	IC50 [7] [nM]	IC50 [8] [nM]	IC50 [9] [nM]	IC50 [10] [nM]	IC50 [11] [nM]	IC50 [12] [nM]	IC50 [13] [nM]	IC50 [14] [nM]	SMILES
200	450	> 10000	28	4800	> 10000	> 10000	650	2500	> 10000	140	2200	6200	4800	Cc1ccc(Nc2nccc(-c3sc(N)nc3C)n2)cc1S(=O)(=O)N1CCOCC1 [Compound 38, [4-(2-Amino-4-methyl-thiazol-5-yl)-pyrimidin-2-yl]-[4-methyl-3-(morpholine-4-sulfonyl)-phenyl]-amine]
180	160	> 10000	30	2100	> 10000	2900	620	5800	1600	110	450	> 10000	1900	COCCNS(=O)(=O)c1cccc(Nc2nccc(-c3sc(N)nc3C)n2)c1 [Compound 55, 3-[4-(2-Amino-4-methyl-thiazol-5-yl)-pyrimidin-2-ylamino]-N-(2-methoxy-ethyl)-benzenesulfonamide]
30	40	> 10000	3	39	> 10000	200	54	5500	17	20	170	4300	490	CNc1nc(C)c(-c2ccnc(Nc3cccc(S(N)(=O)=O)c3)n2)s1 [Compound 19, 3-[4-(4-Methyl-2-methylamino-thiazol-5-yl)-pyrimidin-2-ylamino]-benzenesulfonamide]
170	1100	> 10000	22	> 10000	> 10000	> 10000	5900	6400	> 10000	240	1800	> 10000	6600	CNc1nc(C)c(-c2ccnc(Nc3ccc(C)c(S(=O)(=O)N4CCOCC4)c3)n2)s1 [Compound 37, [4-(4-Methyl-2-methylamino-thiazol-5-yl)-pyrimidin-2-yl]-[4-methyl-3-(morpholine-4-sulfonyl)-phenyl]-amine]
65	320	> 10000	1	330	> 10000	260	200	> 10000	180	260	94	> 10000	520	CNc1nc(C)c(-c2ccnc(Nc3cccc(S(C)(=O)=O)c3)n2)s1 [Compound 27, (3-Methanesulfonyl-phenyl)-[4-(4-methyl-2-methylamino-thiazol-5-yl)-pyrimidin-2-yl]-amine]

SMILES	IC50 [1] [nM]	IC50 [2] [nM]	IC50 [3] [nM]	IC50 [4] [nM]	IC50 [5] [nM]	IC50 [6] [nM]	IC50 [7] [nM]	IC50 [8] [nM]	IC50 [9] [nM]	IC50 [10] [nM]	IC50 [11] [nM]	IC50 [12] [nM]	IC50 [13] [nM]	IC50 [14] [nM]
CCNc1nc(C)c(-c2ccnc(Nc3ccc(N4CCNCC4)cc3)n2)s1 [Compound 59, [4-(2-Ethylamino-4-methyl-thiazol-5-yl)-pyrimidin-2-yl]-(4-piperazin-1-yl-phenyl)-amine]	17	90	> 10000	110	29	> 10000	1200	160	> 10000	46	16	> 10000	1000	210
